# From ChEMBL document CHEMBL1782021, “Synthesis of 2-aziridinyl phosphonates by modified Gabriel-Cromwell reaction and their antibacterial activities” (2011)
# Experiments:
# Assay type in all cases: functional
# Bacillus subtilis = assay: Antibacterial activity against Bacillus subtilis assessed as diameter of zone of inhibition at 10 ug/disk after 24 hrs by disc diffusion assay; conditions: read-out: DIZ
# Escherichia coli = assay: Antibacterial activity against Escherichia coli DH5[alpha] at 10 ug/disk after 24 hrs by disc diffusion assay; conditions: read-out: DIZ
# Brevundimonas = assay: Antibacterial activity against Brevundimonas sp. isolate Fs30 at 10 ug/disk after 24 hrs by disc diffusion assay; conditions: isolate Fs30, 24 h, read-out: DIZ
# Kocuria = assay: Antibacterial activity against Kocuria sp. isolate Fs24 at 10 ug/disk after 24 hrs by disc diffusion assay; conditions: isolate Fs24, 24 h, read-out: DIZ
# Gordonia sp. = assay: Antibacterial activity against Gordonia sp. isolate Fs48 at 10 ug/disk after 24 hrs by disc diffusion assay; conditions: Gordonia sp. (in: high G+C Gram-positive bacteria), isolate Fs48, 24 h; read-out: DIZ
SMILES,zone of inhibition at 10 µg/disc (Bacillus subtilis) [mm],zone of inhibition at 10 µg/disc (Escherichia coli) [mm],zone of inhibition at 10 µg/disc (Brevundimonas) [mm],zone of inhibition at 10 µg/disc (Kocuria) [mm],zone of inhibition at 10 µg/disc (Gordonia sp.) [mm]
CC1(C)S[C@@H]2[C@H](NC(=O)[C@H](N)c3ccccc3)C(=O)N2[C@H]1C(=O)O [AMPICILLIN],17.3,16.7,10.7,47.7,–
CN[C@@H]1[C@H](O[C@H]2[C@H](O[C@H]3[C@H](O)[C@@H](O)[C@H](N=C(N)N)[C@@H](O)[C@@H]3N=C(N)N)O[C@@H](C)[C@]2(O)C=O)O[C@@H](CO)[C@H](O)[C@H]1O [STREPTOMYCIN],14,19.7,29.3,26,29
